# Test results published in publication PMC7473970, “Preformulation Studies of a Stable PTEN-PDZ Lipopeptide Able to Cross an In Vitro Blood-Brain-Barrier Model as a Potential Therapy for Alzheimer’s Disease” (Pharmaceutical Research, 2020).
# Like-named read-outs stand apart in the source and are kept apart here. Residues, ends and D or L forms follow the SMILES beside them.
# Experiments:
# [1] = In vitro stability in 50% liver homogenate; format: in vitro ADME, mouse; settings: 37°C; for k: 50% w/v CD-1 mouse liver homogenate in PBS pH 7.4, 120 μL of 5 mM DMSO stock in 1080 μL, 100 rpm, 0-1440 min; for k / t1/2 (h) / t1/2 (min): HPLC-UV 220 nm, one phase decay, least square fit, n = 3; for t1/2 (h) / t1/2 (min): 50% w/v mouse liver homogenate in PBS pH 7.4
# Method: (§1) The samples were analyzed at 40°C on a Phenomenex Lichrosorb RP8 C8 column (4.0 mm × 250 mm, 5 μm), using the gradient elution method on an Agilent HPLC system (Agilent Technologies, Cheadle, UK) equipped with an 1100 series degasser, quaternary pump, autosampler, and column heater, and attached to an Agilent 1200 series PDA detector and a 1250 series fluorescent detector. The flow rate was set at 1.2 mL min^-1, and the injection volume was set at 40 μL, while detection was performed at 220 nm. The mobile phase was a mixture of mobile phase A (0.1% TFA in water) and phase B (0.08% TFA in acetonitrile), and in the first 5 min, the mobile phase was an 8:2 ratio of A:B (v/v) and from 5 to 15 min the percentage of B was raised from 8:2 to 1:9 (v/v). Linear calibration curves were constructed for both peptides between 0.1–100 μg.mL^−1. The retention time for the human Lau–PTEN-PDZ, mouse Lau–PTEN-PDZ, human Myr–PTEN-PDZ, and mouse Myr–PTEN-PDZ was 12.03, 11.60, 13.68, and 13.91, respectively.
# (§2) The liver and brain of the mice were excised from […] CD-1 male mice (7 weeks-old: Charles River Laboratories) sacrificed with CO2, and the tissue was frozen immediately with liquid nitrogen prior to storage at −80°C. The liver and brain tissue were thawed and homogenized on ice in PBS (2 mL/g of tissue) using a glass 3 mL tissue homogenizer (20 strokes per sample), and the liver and brain homogenates were centrifuged (Heraeus Multifuge 3sf, Fisher Scientific, Basingstoke, UK) at 4300 g for 60 min at 4°C and at 3000 g for 20 min at 4°C, respectively. The supernatant was stored at −80°C, diluted 1:1 (v/v) with PBS (1x, pH 7.4), and used in stability studies. Peptides stocks (5 mM in DMSO) were prepared and maintained at −20°C prior to performing stability studies. These stock solutions (120 μL) were added to the diluted pre-warmed (37°C) liver or brain homogenate (50% v/v, 1080 μL) with agitation (100 rpm: Grant Aqua Waterbath), and samples (80 μL) were taken at 0, 5, 10, 15, 30, 45, 60, 90, 120, 180, 240, 360 and 1440 min, and diluted with ice-cold acetonitrile (80 μL). Samples were vortexed and left at −80°C at least overnight to allow for maximum protein precipitation, the samples were vortexed again for 15 min, centrifuged and the supernatant was analyzed by HPLC as described above.
# (§3) The total protein concentration in the homogenates was determined using the Bradford protein assay ([7],[15]) and BSA as a standard. Ten stock solutions of BSA were prepared in PBS between 0.1–1 mg mL^−1, and 40 μL of each of the diluted stocks were added to 1.2 mL of Bradford reagent and incubated at room temperature for 5 min. The absorbance was recorded at 595 nm using a Multiskan GO spectrophotometer and the SkanIt software (Thermo Scientific, Paisley, UK). A linear calibration curve was obtained in this range that was used to extrapolate the protein content of 1:100 v/v stock solutions of 50% mouse plasma, liver, and brain homogenates diluted in PBS.
# [2] = In vitro stability in 50% brain homogenate; format: in vitro ADME, mouse; settings: 37°C, HPLC-UV 220 nm, one phase decay, least square fit, n = 3; for k: 50% w/v CD-1 mouse brain homogenate in PBS pH 7.4, 120 μL of 5 mM DMSO stock in 1080 μL, 100 rpm, 0-1440 min; for t1/2 (h) / t1/2 (min): 50% w/v mouse brain homogenate in PBS pH 7.4
# Method: as §1, §2, §3
# [3] = Permeability across in vitro 2D human blood-brain barrier model; format: in vitro ADME
# [4] = In vitro stability in simulated intestinal fluid (mouse intestinal wash); format: in vitro ADME; settings: 120 μL of 5 mM DMSO stock in 1080 μL, 37°C, 0-1440 min, HPLC-UV 220 nm, n = 3; for k: Simulated intestinal fluid = undiluted pooled CD-1 mouse duodenum/ileum wash in 50 mM phosphate buffer pH 6.63, 100 rpm, one phase decay, least square fit; for t1/2 (h) / t1/2 (min): Simulated intestinal fluid = undiluted pooled CD-1 mouse duodenum/ileum wash, phosphate buffer pH 6.63, one phase decay fit
# Method: as §1
# The duodenum and ileum were excised from 10 non-fasted CD-1 male mice (7 weeks-old: Charles River Laboratories) that were sacrificed with CO2. Each duodenum and ileum were washed with 6 ml of phosphate buffer (50 mM, pH 6.63), and all the washes were pooled prior to centrifugation at 4000 rpm for 15 min at 4°C (Heraeus Multifuge 3sf) ([7],[15]). The intestinal wash was removed and frozen at −80°C prior to using it in stability studies without further dilution. Peptides stocks (5 mM in DMSO) were prepared and maintained at −20°C prior to performing stability studies. A stock peptide solution (120 μL) was added to the diluted pre-warmed (37°C) intestinal wash (1080 μL) with agitation at 100 rpm (Grant Aqua Waterbath), and samples (80 μL) were taken at 0, 15, 30, 45, 60, 90, 120, 180, 240, 360 and 1440 min, and diluted with ice-cold glacial acetic acid (17.5 M): acetonitrile (5:95 v/v, 80 μL) to quench the enzyme activity. Samples were vortexed and left in −80°C at least overnight to maximize protein precipitation, and after vortexing again for 15 min and centrifuging, the supernatant was analyzed by HPLC as described above.
# [5] = In vitro stability in 50% v/v mouse plasma; format: in vitro ADME; settings: 37°C, HPLC-UV 220 nm, one phase decay, least square fit, n = 3; for k: 50% v/v CD-1 mouse plasma (K3 EDTA) in PBS, 120 μL of 5 mM DMSO stock in 1080 μL, 100 rpm, 0-1440 min
# Method: CD-1 male mice (7 weeks old: Charles River Laboratories) were sacrificed with CO2, and blood was collected in K3E EDTA spray-coated vacutainers and kept on ice prior to centrifugation at 3000 rpm for 15 min at 4°C (Heraeus Multifuge 3sf). Mouse plasma samples were stored at −80°C before use in stability studies. Study was approved by the University of Portsmouth Animal Welfare and Ethical Review Body (UoP AWERB body, 817).
# For testing, the plasma was diluted (1:1) in PBS without phenol and pre-warmed to 37°C. Peptides stocks (5 mM in DMSO) were prepared and maintained at −20°C before performing the stability studies. Peptide stock solutions (120 μL) were added to pre-warmed diluted plasma (50% v/v, 1080 μL) and maintained at 37°C with agitation (100 rpm: Grant Aqua Waterbath, Royston, UK). Samples (80 μL) were taken at 0, 3, 6,9, 15, 30, 45, 60, 90, 120, 180, 240, 360 and 1440 min, diluted with ice-cold acetonitrile (80 μL), vortexed and left in −80°C at least overnight to favor maximal protein precipitation. The samples were then vortexed again for 15 min (SciQuip microplate shaker, Shropshire, UK), centrifuged in a Thermo Sci Jouan B4i Centrifuge (Hemel Hampstead, UK) and the supernatant was transferred to an HPLC vial (200 μL).
# as §1
# [6] = read-out: Papp0-4h, Experiment 2
# [7] = 50% w/v mouse liver homogenate, two phase decay fit, fast phase
# [8] = 50% w/v mouse liver homogenate, two phase decay fit, slow phase
k [1] [h⁻¹],t1/2 (h) [1] [h],t1/2 (min) [1] [min],k [2] [h⁻¹],t1/2 (h) [2] [h],t1/2 (min) [2] [min],"Papp A→B at 100 μM [3, 6] [×10⁻⁶ cm/s]",k [4] [h⁻¹],t1/2 (h) [4] [h],t1/2 (min) [4] [min],k [5] [h⁻¹],t1/2 (h) ([5]; 50% v/v mouse plasma in PBS),t1/2 (min) ([5]; 50% v/v mouse plasma in PBS),SMILES,further results
1.15,0.60,36.28,1.90,0.36,21.87,5.57 ± 0.29,0.23,2.96,177.96,4.60,0.15,9.05,CCCCCCCCCCCC(=O)N[C@@H](CCC(N)=O)C(=O)N[C@@H](Cc1c[nH]cn1)C(=O)N[C@H](C(=O)N[C@@H](CCC(N)=O)C(=O)N[C@H](C(=O)N[C@H](C(=O)N[C@@H](CCCCN)C(=O)N[C@H](C(=O)O)C(C)C)[C@@H](C)O)[C@@H](C)CC)[C@@H](C)O [Human Lau-PTEN-PDZ] (HELM PEPTIDE1{[CCCCCCCCCCCC(=O)[*:2]].Q.H.T.Q.I.T.K.V}$$$$V2.0),–
0.04,18.5,1110,4.20,0.16,9.89,3.77 ± 0.39,0.25,–,–,6.17,0.11,6.74,CCCCCCCCCCCCCC(=O)N[C@@H](CCC(N)=O)C(=O)N[C@@H](Cc1c[nH]cn1)C(=O)N[C@H](C(=O)N[C@@H](CCC(N)=O)C(=O)N[C@H](C(=O)N[C@H](C(=O)N[C@@H](CCCCN)C(=O)N[C@H](C(=O)O)C(C)C)[C@@H](C)O)[C@@H](C)CC)[C@@H](C)O [Human Myr-PTEN-PDZ] (HELM PEPTIDE1{[CCCCCCCCCCCCCC(=O)[*:2]].Q.H.T.Q.I.T.K.V}$$$$V2.0),"k (fast) [1, 7]: 3.05 h⁻¹; t1/2 (h) fast [1, 7]: 0.23 h; t1/2 (min) fast [1, 7]: 13.63 min; k (slow) [1, 8]: 0.0005 h⁻¹; t1/2 (h) slow [1, 8]: 1510 h; t1/2 (min) slow [1, 8]: 90,600 min"
0.73,0.95,57.14,3.48,0.20,11.95,–,2.34,0.30,17.77,0.12,5.86,351.84,CCCCCCCCCCCC(=O)N[C@@H](CCC(N)=O)C(=O)N[C@@H](Cc1c[nH]cn1)C(=O)N[C@@H](CO)C(=O)N[C@@H](CCC(N)=O)C(=O)N[C@H](C(=O)N[C@H](C(=O)N[C@@H](CCCCN)C(=O)N[C@H](C(=O)O)C(C)C)[C@@H](C)O)[C@@H](C)CC [Mouse Lau-PTEN-PDZ] (HELM PEPTIDE1{[CCCCCCCCCCCC(=O)[*:2]].Q.H.S.Q.I.T.K.V}$$$$V2.0),"Papp A→B at 100 μM ([3]; read-out: Papp0-4h, Experiment 1): 6.28 ± 1.85 ×10⁻⁶ cm/s; half-life at 0.5 mM ([5]; male, CD-1, 50% v/v mouse plasma (K3 EDTA) diluted in PBS, 50% v/v mouse plasma in PBS): 354 min"
